Measured values: patent publication US5102873A (priority 1989, dated 1992)
“And” between values parts separate entries of the source, which are not always exact repeats. Equal values may be shown once.

Experiments:
[1] = system: vaccinia virus; experiment: microbe, parasite or virus in culture; format: cell-based; settings: for IC50: Orthopoxvirus vaccinia, Vero, read-out: ID50 (inhibitory dose 50; 50% reduction in virus replication), vaccinia virus in Vero cells, called MIC50; for TI (therapeutic index, MTC/ID50) / Virus Rating (VR): Vero cells; for TI (therapeutic index, MTC/ID50): TI>50 indicates a useful compound; for Virus Rating (VR): VR >=1.0 significant, 0.5-0.9 marginal, <0.5 inactive, repeat lines are repeat tests
[2] = Cytotoxicity of test compound to Vero host cells (minimum toxic concentration); settings: monkey, MTC (minimum toxic concentration), footnote: lowest concentration giving 50% reduction in percent survival of viable host cells

SMILES	IC50 [1] [µg/mL]	TI (therapeutic index, MTC/ID50) [1]	Virus Rating (VR) [1]	MCC [2] [µg/mL]
N=c1c2ncn([C@@H]3O[C@H](CO)[C@@H](O)[C@H]3O)c2ncn1OCc1ccccc1.[O-][Cl+3]([O-])([O-])O [Compound 2dd, 1-Benzyloxyadenosine, perchloric acid salt]	1.77	180	> 2.0	320
COc1cccc(COn2cnc3c(ncn3[C@@H]3O[C@H](CO)[C@@H](O)[C@H]3O)c2=N)c1.[O-][Cl+3]([O-])([O-])O [Compound 2e, 1-(3-Methoxybenzyloxy)adenosine, perchloric acid salt]	0.2	1609 and 1075	–	> 320
N=c1c2ncn([C@@H]3O[C@H](CO)[C@@H](O)[C@H]3O)c2ncn1OCc1cc(F)cc(F)c1.[O-][Cl+3]([O-])([O-])O [Compound 2ff, 1-(3,5-Difluorobenzyloxy)adenosine, perchloric acid salt]	1.55	205 and 175	> 2.0	> 320
N=c1c2ncn([C@@H]3O[C@H](CO)[C@@H](O)[C@H]3O)c2ncn1OCc1ccccc1F.[O-][Cl+3]([O-])([O-])O [Compound 2g, 1-(2-Fluorobenzyloxy)adenosine, perchloric acid salt]	4.97	64 and 34	–	> 320
N=c1c2ncn([C@@H]3O[C@H](CO)[C@@H](O)[C@H]3O)c2ncn1OCc1cc(F)ccc1F.[O-][Cl+3]([O-])([O-])O [Compound 2gg, 1-(2,5-Difluorobenzyloxy)adenosine, perchloric acid salt]	1.77	180 and 115	–	> 320
N=c1c2ncn([C@@H]3O[C@H](CO)[C@@H](O)[C@H]3O)c2ncn1OCc1cccc(F)c1.[O-][Cl+3]([O-])([O-])O [Compound 2h, 1-(3-Fluorobenzyloxy)adenosine, perchloric acid salt]	0.98	325 and 285	–	> 320
N=c1c2ncn([C@@H]3O[C@H](CO)[C@@H](O)[C@H]3O)c2ncn1OCc1ccc(F)cc1.[O-][Cl+3]([O-])([O-])O [Compound 2i, 1-(4-Fluorobenzyloxy)adenosine, perchloric acid salt]	2.41	133 and 160	–	> 320
N=c1c2ncn([C@@H]3O[C@H](CO)[C@@H](O)[C@H]3O)c2ncn1OCc1ccc(F)cc1F.[O-][Cl+3]([O-])([O-])O [Compound 2j, 1-(2,4-Difluorobenzyloxy)adenosine, perchloric acid salt]	0.31	1029	> 2.4	> 320
N=c1c2ncn([C@@H]3O[C@H](CO)[C@@H](O)[C@H]3O)c2ncn1OCc1ccc(F)c(F)c1.[O-][Cl+3]([O-])([O-])O [Compound 2k, 1-(3,4-Difluorobenzyloxy)adenosine, perchloric acid salt]	0.48	671 and 434	> 2.3	> 320
N=c1c2ncn([C@@H]3O[C@H](CO)[C@@H](O)[C@H]3O)c2ncn1OCc1ccccc1C(F)(F)F.[O-][Cl+3]([O-])([O-])O [Compound 2l, 1-(2-Trifluoromethylbenzyloxy)adenosine, perchloric acid salt]	0.82	391	> 2.2	> 320
N=c1c2ncn([C@@H]3O[C@H](CO)[C@@H](O)[C@H]3O)c2ncn1OCc1cc(C(F)(F)F)cc(C(F)(F)F)c1.[O-][Cl+3]([O-])([O-])O [Compound 2m, 1-[3,5-Bis(trifluoromethyl)benzyloxy]adenosine, perchloric acid salt]	1.03	311 and 314	–	> 320
N=c1c2ncn([C@@H]3O[C@H](CO)[C@@H](O)[C@H]3O)c2ncn1OCc1ccc(C(F)(F)F)cc1C(F)(F)F.[O-][Cl+3]([O-])([O-])O [Compound 2n, 1-[2,4-Bis(trifluoromethyl)benzyloxy]adenosine, perchloric acid salt]	1.45	221 and 181	–	> 320
N=c1c2ncn([C@@H]3O[C@H](CO)[C@@H](O)[C@H]3O)c2ncn1OCc1ccccc1Cl.[O-][Cl+3]([O-])([O-])O [Compound 2o, 1-(2-Chlorobenzyloxy)adenosine, perchloric acid salt]	1.01	318 and 251	–	> 320
N=c1c2ncn([C@@H]3O[C@H](CO)[C@@H](O)[C@H]3O)c2ncn1OCc1cccc(Cl)c1.[O-][Cl+3]([O-])([O-])O [Compound 2p, 1-(3-Chlorobenzyloxy)adenosine, perchloric acid salt]	1.08	295 and 193	–	> 320
N=c1c2ncn([C@@H]3O[C@H](CO)[C@@H](O)[C@H]3O)c2ncn1OCc1ccccc1[N+](=O)[O-].[O-][Cl+3]([O-])([O-])O [Compound 2q, 1-(2-Nitrobenzyloxy)adenosine, perchloric acid salt]	1.03	310 and 181	–	> 320
N=c1c2ncn([C@@H]3O[C@H](CO)[C@@H](O)[C@H]3O)c2ncn1OCc1cccc([N+](=O)[O-])c1.[O-][Cl+3]([O-])([O-])O [Compound 2r, 1-(3-Nitrobenzyloxy)adenosine, perchloric acid salt]	10	32 and 30	–	> 320
N=c1c2ncn([C@@H]3O[C@H](CO)[C@@H](O)[C@H]3O)c2ncn1OCc1ccc([N+](=O)[O-])cc1.[O-][Cl+3]([O-])([O-])O [Compound 2s, 1-(4-Nitrobenzyloxy)adenosine, perchloric acid salt]	2.34	137 and 89	> 1.7	> 320
COc1ccc([N+](=O)[O-])cc1COn1cnc2c(ncn2[C@@H]2O[C@H](CO)[C@@H](O)[C@H]2O)c1=N.[O-][Cl+3]([O-])([O-])O [Compound 2t, 1-(2-Methoxy-5-nitrobenzyloxy)adenosine, perchloric acid salt]	2.01	160 and 87	–	> 320
COC(=O)c1cccc(COn2cnc3c(ncn3[C@@H]3O[C@H](CO)[C@@H](O)[C@H]3O)c2=N)c1.[O-][Cl+3]([O-])([O-])O [Compound 2u, 1-(3-Methoxycarbonylbenzyloxy)adenosine, perchloric acid salt]	1.55	207 and 139	–	> 320
N#Cc1ccc(COn2cnc3c(ncn3[C@@H]3O[C@H](CO)[C@@H](O)[C@H]3O)c2=N)cc1.[O-][Cl+3]([O-])([O-])O [Compound 2v, 1-(4-Cyanobenzyloxy)adenosine, perchloric acid salt]	3.2	100 and 134	–	> 320
N#Cc1cccc(COn2cnc3c(ncn3[C@@H]3O[C@H](CO)[C@@H](O)[C@H]3O)c2=N)c1.[O-][Cl+3]([O-])([O-])O [Compound 2x, 1-(3-Cyanobenzyloxy)adenosine, perchloric acid salt]	–	182 and 134	–	> 320
COc1ccccc1COn1cnc2c(ncn2[C@@H]2O[C@H](CO)[C@@H](O)[C@H]2O)c1=N.[O-][Cl+3]([O-])([O-])O [Compound 2y, 1-(2-methoxybenzyloxy)adenosine, perchloric acid salt]	0.17	1935 and > 3020	–	320
Cc1ccc(COn2cnc3c(ncn3[C@@H]3O[C@H](CO)[C@@H](O)[C@H]3O)c2=N)cc1C.[O-][Cl+3]([O-])([O-])O [Compound 2z, 1-(3,4-Dimethylbenzyloxy)adenosine, perchloric acid salt]	0.32	> 1000 and > 1760	–	320
